Source: patent EP1530462B1, “1-PHENYL-2-DIMETHYLAMINOMETHYL CYCLOHEXANE COMPOUNDS USED FOR THE THERAPY OF DEPRESSIVE SYMPTOMS, PAIN, AND INCONTINENCE” (priority 2002, dated 2004)

Test system: Maus
Experiment: Tail Suspension Test in the mouse
Type: in vivo
Text: Der "Tail Suspension Test" detektiert antidepressive und anxiolytische Aktivität und folgt der Methode von Porsolt et al. (Porsolt R.D., Bertin A., Jalfre M., Behaviourial despair in mice: a primary screening test for antidepressants. Arch. Int. Pharmacodyn. Ther., 229, 327-336, 1977) und Stéru et al. (Stéru L., .Chermat R., Thierry B, Simon P. The Tail Suspension Test: a new method for screening antidepressants in mice. Psychopharmacology, 85, 367-370, 1985). Nagetiere, die man am Schwanz herabhängen läßt, werden schnell immobil. Antidepressiva verringern die Dauer der Immobilität, während Tranquilantien die Dauer der Immobilität verlängern. Das Verhalten der Tiere wurde über 6 Minuten beobachtet, vorzugsweise mit einem computerisierten Gerät (Itemac-TST) entwickelt von Stéru et al. (1985) (s.o.). Mehrere Mäuse wurden parallel untersucht und die Immobilitätsdauer bestimmt. Dieser Parameter ist analog zu dem im "behavioral despair"-Test (Stéru L., Chermat R., Thierry B., Mico J.A., Lenègre A., Stéru M., Simon P. Porsolt R.D., The automated Tail Suspension Test: a computerized device which differentiates psychotropic drugs. Prog. Neuropsychopharmacol. Exp. Psychiatry, 11, 659-671, 1987) verwendeten. 10-20 Mäuse wurden pro Gruppe untersucht. […]. In diesem Verhaltensmodell führen Antidepressiva wie auch in anderen Verhaltensmodellen zu einer Verkürzung der Immobilitätsphase, während Opioide wie Morphin die Immobilitätsphase verlängern. Beim Vorhandensein beider Wirkkomponenten überlagern sich beide Effekte, so daß nur noch eine geringe Motilitätsveränderung resultiert. Das wurde dadurch aufgehoben, daß die Opiatkomponente durch Vorbehandlung mit Naloxon weggeblockt wurde. Nach der Naloxonvorbehandlung trat die stimulierende Wirkung von (1R,2R)-3-(2-Dimethylaminomethyl-cyclohexyl)-phenol, die ohne Vorbehandlung nur gering war, deutlich in Erscheinung. Darum ist die Substanz, insbesondere in Kombination mit einer Schmerztherapie sehr geeignet. Die Ergebnisse dieser Untersuchungen zusammen mit Referenzsubstanzen sind in der Tabelle 2 zusammengefaßt. Tabelle 2: Wirkung von (1R,2R)-3-(2-Dimethylaminomethyl-cyclohexyl)-phenol, Imipramin und Morphin in "Tail Suspension" Test an der Maus (10 - 20 Tiere/Gruppe)

[1] = 31,6 mg/kg i.p., 30 min before test

Structure (SMILES)	Imobilitätsdauer % Änderung gegenüber der Lösungsmittelkontrolle (4,64 mg/kg i.p., 30 min before test)	Imobilitätsdauer % Änderung gegenüber der Lösungsmittelkontrolle (10,0 mg/kg i.p., 30 min before test)	Imobilitätsdauer % Änderung gegenüber der Lösungsmittelkontrolle (21,5 mg/kg i.p. + 1,0 mg/kg i.v. Naloxon (pretreatment)) [%]	Imobilitätsdauer % Änderung gegenüber der Lösungsmittelkontrolle (21,5 mg/kg i.p., 30 min before test)	Imobilitätsdauer % Änderung gegenüber der Lösungsmittelkontrolle (31,6 mg/kg i.p. + 1,0 mg/kg i.v. Naloxon (pretreatment)) [%]	Imobilitätsdauer % Änderung gegenüber der Lösungsmittelkontrolle [1] [%]	Imobilitätsdauer % Änderung gegenüber der Lösungsmittelkontrolle (1,0 mg/kg i.v. alone) [%]
CN(C)C[C@@H]1CCCC[C@H]1c1cccc(O)c1 [(1R,2R)-3-(2-Dimethylaminomethyl-cyclohexyl)-phenol]	+6%	+12%	-90	+9%	-85	-13	–
CN(C)CCCN1c2ccccc2CCc2ccccc21 [Imipramin, reference compound]	–	–	–	–	–	-61	–
C=CCN1CC[C@]23c4c5ccc(O)c4O[C@H]2C(=O)CC[C@@]3(O)[C@H]1C5 [Naloxon, reference compound]	–	–	–	–	–	–	-15
